From US8927726B2, “N-cyclopropyl-N-piperidinyl-amide derivatives, pharmaceutical compositions containing them and uses thereof” (Boehringer Ingelheim International GmbH, priority 2012, dated 2015)

Tests used:
human GPR119 = target: T1, human GPR119 (Homo sapiens, UniProt Q8TDV5); assay: AlphaScreen cAMP assay in MIN6 cells stably transfected with human GPR119; assay type: cell-based; details: Min-6/hGPR119 cells, 45 minutes incubation at room temperature
T1 construct: expressed in transfected cells; host or cells: MIN6 (mouse insulinoma) cells, stably transfected
T1 sequence (Q8TDV5 1-335): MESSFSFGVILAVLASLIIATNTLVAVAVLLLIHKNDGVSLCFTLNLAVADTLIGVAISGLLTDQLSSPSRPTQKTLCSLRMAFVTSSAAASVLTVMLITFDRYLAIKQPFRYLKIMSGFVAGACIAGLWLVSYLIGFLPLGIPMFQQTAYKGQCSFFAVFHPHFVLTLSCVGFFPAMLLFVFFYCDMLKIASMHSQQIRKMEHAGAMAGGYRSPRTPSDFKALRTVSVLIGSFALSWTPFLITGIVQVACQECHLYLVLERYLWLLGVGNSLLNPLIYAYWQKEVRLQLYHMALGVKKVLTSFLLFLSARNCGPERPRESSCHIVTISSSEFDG
Method: The compounds of formula I according to the invention modulate the activity of the G-protein-coupled receptor GPR119. The effect of the compounds on the activation of GPR119 and on the stimulation of intracellular cAMP concentration is determined using the AlphaScreen cAMP Assay Kit (Cat. No. #6760625R) made by PerkinElmer.
MIN6 cells [Miyazaki Jet al. Endocrinology. 1990 July; 127(1):126-32] are stably transfected with an expression vector for human GPR119 cDNA (Acc. No. NP_848566). Min-6 / hGPR119 cells are cultured in DMEM, 10% FBS, 50 μM β-mercaptoethanol, 0.3 mg/mL Geniticin, 2 mM GlutaMAX at 37° C. 5% CO2. For the assay, the cells are seeded in Optiplates (white, 384-well, 160W-barcoded, TC, sterile with lid, Cat. No. #6007688 (Perkin Elmer); 10000 cells/well; 50 μl). The plates covered with lids are then incubated for 24 hours at 37° C./5% CO2. After the medium is aspirated from the wells completely, 10 μl of the test compound are added, the compounds are diluted using stimulating buffer (140 mM NaCl, 3.6 mM KCl, 0.5 mM NaH2PO4, 0.5 mM MgSO4, 1.5 mM CaCl2, 10 mM Hepes, 5 mM NaHCO3; pH 7.4. 0.5 mM IBMX and 0.1% BSA, the final DMSO concentration is 1%). After 45 minutes incubation at room temperature (approx. 20° C.), the cAMP concentrations are determined using the AlphaScreen cAMP Assay Kit (Cat.No.# 6760625R from PerkinElmer).

[1] = target: T2, mutant form of the human GPR119 receptor (Homo sapiens, UniProt Q8TDV5, S329A/T327A); assay: LANCE cAMP-384 assay in HEK293 cells stably expressing mutant human GPR119; assay type: cell-based; details: mutant human GPR119 (SEQ ID No. 1), 20 min at 37 C
T2 construct: X1, the printed 24-residue N-terminal leader ([…]) that replaces Met1; (N); expressed in transfected cells
T2 sequence (Q8TDV5 2-335 T327A/S329A): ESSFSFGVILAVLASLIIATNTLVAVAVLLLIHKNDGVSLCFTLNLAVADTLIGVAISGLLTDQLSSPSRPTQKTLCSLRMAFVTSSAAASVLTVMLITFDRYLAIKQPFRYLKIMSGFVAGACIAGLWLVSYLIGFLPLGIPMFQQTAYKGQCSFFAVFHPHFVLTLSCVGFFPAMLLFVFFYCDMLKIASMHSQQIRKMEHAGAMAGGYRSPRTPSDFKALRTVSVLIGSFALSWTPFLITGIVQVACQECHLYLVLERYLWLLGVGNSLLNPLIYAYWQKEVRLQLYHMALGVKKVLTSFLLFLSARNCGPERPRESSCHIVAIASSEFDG
Method: Quantitative detection of cAMP accumulation from cells expressing human GPR119 receptor is achieved using Perkin Elmer's LANCE cAMP-384 Kit (Cat #AD0264) according to the manufacturer's protocol. Briefly, HEK293 cells stably expressing a mutant form of the human GPR119 receptor as assay tool (Methionine 1 replaced with the amino acid sequence […], and T327 & S329 changed to alanines; SEQ ID No. 1) are grown to 50-70% confluency in cell culture media (DMEM, 10% heat inactivated Fetal Bovine Serum, 50 I.U./mL penicillin, 50 μg/mL streptomycin, 10 mM HEPES, 20 μg/mL G418 Sulfate). On the day of the assay, GPR119 stable HEK293 cells are lifted from the tissue culture plate and 1000 cells/well are incubated along with various concentrations of test compounds for 20 min at 37+ C. Detection Buffer (50mM HEPES, 10mM calcium chloride, 0.35% Triton X-100, 1 mg/mL BSA) containing cAMP-specific antibody is then added to all wells and allowed to equilibrate in the dark for 10 minutes at room temperature. Upon equilibration, Detection Buffer containing europium-labeled cAMP tracer complex is added to all wells and allowed to react for 1 hour at room temperature. After 1 hour, bound europium-labeled cAMP tracer is measured using a Perkin Elmer Envision plate reader. The quantity of cAMP generated in each well is derived from a standard curve. EC50 is determined using nonlinear regression analysis of the cAMP values over a range of agonist concentration (12 points spanning the range from 30 μM to 100 pM).

CC(C)(F)CN1CCC(N(C(=O)c2cc(-c3ccc(C#N)cc3)on2)C2CC2)CC1 [Example 6, 5-(4-Cyano-phenyl)-isoxazole-3-carboxylic acid cyclopropyl-[1-(2-fluoro-2-methyl-propyl) -piperidin-4-yl]-amide]
EC50 (human GPR119): 50 nM

N#Cc1ccc(-c2cc(C(=O)N(C3CC3)C3CCN(CC4(C(F)(F)F)CC4)CC3)no2)c(F)c1 [Example 9, 5-(4-Cyano-2-fluoro-phenyl)-isoxazole-3-carboxylic acid cyclopropyl-[1-(1-trifluoromethyl-cyclopropylmethyl)-piperidin-4-yl]-amide]
EC50 (human GPR119): 6 nM

O=C(c1ccc(-c2cnco2)cc1)N(C1CC1)C1CCN(CCC(F)(F)F)CC1 [Example 2, N-Cyclopropyl-4-oxazol-5-yl-N-[1-(3,3,3-trifluoro-propyl)-piperidin-4-yl]-benzamide]
EC50 (human GPR119): 643 nM

CC(C)(F)CN1CCC(N(C(=O)c2ccc(-c3cnco3)c(F)c2)C2CC2)CC1 [Example 4, N-Cyclopropyl-3-fluoro-N[1-(2-fluoro-2-methyl-propyl)-piperidin-4-yl]-4-oxazol-5-yl-benzamide]
EC50 (human GPR119): 63 nM

CC(C)(F)CN1CCC(N(C(=O)c2cc(-c3ccc(C#N)cc3F)no2)C2CC2)CC1 [Example 8, 3-(4-Cyano-2-fluoro-phenyl)-isoxazole-5-carboxylic acid cyclopropyl-[1-(2-fluoro-2-methyl-propyl)-piperidin-4-yl]-amide]
EC50 (human GPR119): 22 nM

N#Cc1ccc(-c2cc(C(=O)N(C3CC3)C3CCN(CC4(C(F)(F)F)CC4)CC3)on2)c(F)c1 [Example 7, 3-(4-Cyano-2-fluoro-phenyl)-isoxazole-5-carboxylic acid cyclopropyl-[1-(1-trifluoromethyl-cyclopropylmethyl)-piperidin-4-yl]-amide]
EC50 (human GPR119): 9 nM

Cc1nccn1-c1ncc(C(=O)N(C2CC2)[C@@H]2CCN(CC3(C(F)(F)F)CC3)C[C@@H]2F)cn1 (single isomer, unassigned) [Example 14]
EC50 [1]: 27 nM

O=C(c1cnc(-n2cncn2)cn1)N(C1CC1)[C@@H]1CCN(CC2(C(F)(F)F)CC2)C[C@@H]1F (single isomer, unassigned) [Example 13]
EC50 (human GPR119): 2 nM

N#Cc1ccc(-c2cc(C(=O)N(C3CC3)C3CCN(CC4(C(F)(F)F)CC4)CC3)no2)cc1 [Example 5, 5-(4-Cyano-phenyl)-isoxazole-3-carboxylic acid cyclopropyl-[1-(1-trifluoromethyl-cyclopropylmethyl) -piperidin-4-yl]-amide]
EC50 (human GPR119): 27 nM

O=C(c1ccc(-n2cncn2)c(F)c1)N(C1CC1)[C@@H]1CCN(CC2(C(F)(F)F)CC2)C[C@@H]1F (single isomer, unassigned) [Example 11]
EC50 [1]: 10 nM

Cc1ncn(-c2cnc(C(=O)N(C3CC3)[C@@H]3CCN(CC4(C(F)(F)F)CC4)C[C@@H]3F)cn2)n1 (single isomer, unassigned) [Example 15]
EC50 [1]: 30 nM

O=C(c1ccc(-c2cnco2)cc1)N(C1CC1)C1CCN(CC2(C(F)(F)F)CC2)CC1 [Example 3, N-Cyclopropyl-4-oxazol-5-yl-N-[1-(1-trifluoromethyl-cyclopropylmethyl)-piperidin-4-yl]-benzamide]
EC50 (human GPR119): 79 nM

Cc1nnnn1-c1ccc(C(=O)N(C2CC2)[C@@H]2CCN(CC3(C(F)(F)F)CC3)C[C@@H]2F)cn1 (single isomer, unassigned) [Example 12]
EC50 [1]: 12 nM

CC(C)(F)CN1CCC(N(C(=O)c2cc(-c3ccc(C#N)cc3F)on2)C2CC2)CC1 [Example 10, 5-(4-Cyano-2-fluoro-phenyl)-isoxazole-3-carboxylic acid cyclopropyl-[1-(2-fluoro-2-methyl-propyl)-piperidin-4-yl]-amide]
EC50 (human GPR119): 19 nM

CC(C)(F)CN1CCC(N(C(=O)c2ccc(-c3cnco3)cc2)C2CC2)CC1 [Example 1, N-Cyclopropyl-N-[1-(2-fluoro-2-methyl-propyl)-piperidin-4-yl]-4-oxazol-5-yl-benzamide]
EC50 (human GPR119): 456 nM
